{"source": "patent US20240150423A1", "about": "“GLP-1 ANALOGUE-MODIFIED DIMERS WITH DIFFERENT CONFIGURATIONS, PREPARATION METHOD THEREOF, AND APPLICATION THEREOF IN TREATMENT OF TYPE II DIABETES” (Nanjing Finepeptide Biopharmaceutical Co.,Ltd, priority 2019, published 2024)", "key": {"[1]": {"test": "T2D model treatment: body weight and organ weights", "type": "in vivo, C57B16/J mice", "conditions": "2G3 study, 35 days", "method": "C57B16/J mice were placed in an SPF-level environment with a standard diet. All experimental operations were performed in accordance with the guidelines of the ethics and uses of experimental animals. […] The NaCl-PB group served as blank control and the model control group served as the T2D model control. They were injected with NaCl-PB solution. The T2D model group was fed with 60 kcal % high-fat diet (D12492, Changzhou SYSE Bio-tech. Co., Ltd., China) until the end of the experiment. Meanwhile the blank control group maintained standard diet. […] These groups were subjected to a 35-day treatment study on the basis of the high-fat diet. • 1. […] The monomeric peptides were dissolved into a saline solution (pH 6.5) for injection. • 2. […] The models were measured blood glucose at the tail and weight weighted every morning at 9 am. […] In the T2D treatment study, all T2D model mice were injected subcutaneously at the back hip in 100 μl per mouse within 30 min. The blood glucose of the experimental mice was measured every five days and the whole measurement was completed within 40 min. […] No. 8-9695-03-201-1, Novo Nordisk company, Switzerland) until the end of the 35-day experiment. • 3."}, "[2]": {"tested_on": "KM mice", "test": "Hypoglycemia test in fasted KM mice at multiples of the low dose", "type": "in vivo", "conditions": "8 and 68 times of low dose, KM mice fasted for 13 hour, within 3 hours after the administration"}, "[3]": {"conditions": "speculated; cited from earlier work"}, "[4]": {"conditions": "in vivo; cited from earlier work"}, "[5]": {"conditions": "cited from earlier work"}, "[6]": {"tested_on": "thyroid C-cell", "conditions": "rodents, dose-dependent and time-dependent; cited from earlier work"}, "[7]": {"tested_on": "Normal Kunming (KM) mice", "test": "multiple OGTT (mOGTT): hypoglycemic duration after a single administration", "type": "in vivo", "conditions": "single injection at the same dose (1.126 nmol), subcutaneous", "method_in_brief": "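Single administration in normal Kunming mice, followed by oral glucose loading with tail-vein glucose sampled at 0–120 min (0, 10, 20, 40, 60, 120 min). Effective duration ended once mean glucose exceeded the NaCl control group on two occasions.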"}, "[8]": {"tested_on": "Normal Kunming (KM) mice", "test": "single oral glucose tolerance test (sOGTT)", "type": "in vivo", "conditions": "with more time; no significant difference", "excerpt": "• 1. Methods: Normal Kunming (KM) mice (purchased from Guangdong Animal Center) were used for oral glucose tolerance test (OGTT) to obtain the hypoglycemic activity and durability of drug. […] The blood glucose meter and blood glucose test paper were from Bayer […]. The average blood glucose of each group was used as an evaluation standard: When the average blood glucose of experimental group was higher than that of the NaCl control group for two times, the measurement stopped and the hypoglycemic period compared to the blank control group was the effective duration. • 2. Results • 2.1 single OGTTs: after a single administration, the mice were orally administered glucose once and measured the blood glucose from the tail blood at 0, 10, 20, 40, 60 and 120 min. […] The duration of each monomer group was about 1⁄2-1⁄4 of the duration of its corresponding dimer group. […] Therefore, the 2G3 peptide was selected for treating type II diabetes (T2D) in vivo and subsequent experiments."}, "[9]": {"tested_on": "GLP-1R", "test": "GLP-1R Western blot analysis in T2D model", "type": "in vivo, C57B16/J mice", "conditions": "compared with the model control group"}, "[10]": {"conditions": "high dose 3.378 nmol/100 μL once a day"}, "[11]": {"conditions": "low dose 0.375 nmol/100 μL once a day"}, "[12]": {"conditions": "medium dose and Liraglutide group 1.126 nmol/100 μL once a day"}}, "note": "Where “and” joins values, the source holds several entries; their conditions need not be identical. Identical values can stand only once. Like-named read-outs stand apart in the source and are kept apart here."}
{"compound": "CCCCCCCCCCCCCCCC(=O)N[C@@H](CCC(=O)NCCCC[C@H](NC(=O)[C@H](C)NC(=O)[C@H](C)NC(=O)[C@H](CCC(N)=O)NC(=O)CNC(=O)[C@H](CCC(=O)O)NC(=O)[C@H](CC(C)C)NC(=O)[C@H](Cc1ccc(O)cc1)NC(=O)[C@H](CSSC[C@H](NC(=O)[C@H](CO)NC(=O)[C@@H](NC(=O)[C@H](CC(=O)O)NC(=O)[C@H](CO)NC(=O)[C@@H](NC(=O)[C@H](Cc1ccccc1)NC(=O)[C@@H](NC(=O)CNC(=O)[C@H](CCC(=O)O)NC(=O)[C@H](C)NC(=O)[C@@H](N)Cc1c[nH]cn1)[C@@H](C)O)[C@@H](C)O)C(C)C)C(=O)N[C@@H](Cc1ccc(O)cc1)C(=O)N[C@@H](CC(C)C)C(=O)N[C@@H](CCC(=O)O)C(=O)NCC(=O)N[C@@H](CCC(N)=O)C(=O)N[C@@H](C)C(=O)N[C@@H](C)C(=O)N[C@@H](CCCCNC(=O)CC[C@H](NC(=O)CCCCCCCCCCCCCCC)C(=O)O)C(=O)N[C@@H](CCC(=O)O)C(=O)N[C@@H](Cc1ccccc1)C(=O)N[C@H](C(=O)N[C@@H](C)C(=O)N[C@@H](Cc1c[nH]c2ccccc12)C(=O)N[C@@H](CC(C)C)C(=O)N[C@H](C(=O)N[C@@H](CCCNC(=N)N)C(=O)NCC(=O)N[C@@H](CCCNC(=N)N)C(=O)NCC(=O)O)C(C)C)[C@@H](C)CC)NC(=O)[C@H](CO)NC(=O)[C@@H](NC(=O)[C@H](CC(=O)O)NC(=O)[C@H](CO)NC(=O)[C@@H](NC(=O)[C@H](Cc1ccccc1)NC(=O)[C@@H](NC(=O)CNC(=O)[C@H](CCC(=O)O)NC(=O)[C@H](C)NC(=O)[C@@H](N)Cc1c[nH]cn1)[C@@H](C)O)[C@@H](C)O)C(C)C)C(=O)N[C@@H](CCC(=O)O)C(=O)N[C@@H](Cc1ccccc1)C(=O)N[C@H](C(=O)N[C@@H](C)C(=O)N[C@@H](Cc1c[nH]c2ccccc12)C(=O)N[C@@H](CC(C)C)C(=O)N[C@H](C(=O)N[C@@H](CCCNC(=N)N)C(=O)NCC(=O)N[C@@H](CCCNC(=N)N)C(=O)NCC(=O)O)C(C)C)[C@@H](C)CC)C(=O)O", "note": "[2G3 series 20]", "values": [{"measurement": "Weight of organs, Heart", "setting": "[1]; [10]", "result": "0.1235 ± 0.02", "unit": "g"}, {"measurement": "Weight of organs, Left kidney", "setting": "[1]; [10]", "result": "0.1661 ± 0.02", "unit": "g"}, {"measurement": "Weight of organs, Left testis", "setting": "[1]; [10]", "result": "0.1070 ± 0.01", "unit": "g"}, {"measurement": "Weight of organs, Liver", "setting": "[1]; [10]", "result": "1.023 ± 0.12", "unit": "b*c* g"}, {"measurement": "Weight of organs, Lung", "setting": "[1]; [10]", "result": "0.1523 ± 0.02", "unit": "g"}, {"measurement": "Weight of organs, Pancreas", "setting": "[1]; [10]", "result": "0.3202 ± 0.07", "unit": "g"}, {"measurement": "Weight of organs, Right kidney", "setting": "[1]; [10]", "result": "0.1640 ± 0.02", "unit": "g"}, {"measurement": "Weight of organs, Right testis", "setting": "[1]; [10]", "result": "0.1060 ± 0.01", "unit": "c* g"}, {"measurement": "Weight of organs, Spleen", "setting": "[1]; [10]", "result": "0.0763 ± 0.01", "unit": "g"}, {"measurement": "Weight of organs, adipose tissue", "setting": "[1]; [10]", "result": "1.0047 ± 0.30", "unit": "b* g"}, {"measurement": "Weight of organs, Heart", "setting": "[1]; [11]", "result": "0.1199 ± 0.01", "unit": "g"}, {"measurement": "Weight of organs, Left kidney", "setting": "[1]; [11]", "result": "0.1703 ± 0.02", "unit": "g"}, {"measurement": "Weight of organs, Left testis", "setting": "[1]; [11]", "result": "0.1065 ± 0.01", "unit": "g"}, {"measurement": "Weight of organs, Liver", "setting": "[1]; [11]", "result": "1.138 ± 0.18", "unit": "a*c** g"}, {"measurement": "Weight of organs, Lung", "setting": "[1]; [11]", "result": "0.1565 ± 0.02", "unit": "g"}, {"measurement": "Weight of organs, Pancreas", "setting": "[1]; [11]", "result": "0.3329 ± 0.05", "unit": "b* g"}, {"measurement": "Weight of organs, Right kidney", "setting": "[1]; [11]", "result": "0.1648 ± 0.02", "unit": "g"}, {"measurement": "Weight of organs, Right testis", "setting": "[1]; [11]", "result": "0.1085 ± 0.01", "unit": "c* g"}, {"measurement": "Weight of organs, Spleen", "setting": "[1]; [11]", "result": "0.0794 ± 0.02", "unit": "g"}, {"measurement": "Weight of organs, adipose tissue", "setting": "[1]; [11]", "result": "1.2216 ± 0.41", "unit": "a*c* g"}, {"measurement": "Weight of organs, Heart", "setting": "[1]; [12]", "result": "0.1207 ± 0.01", "unit": "g"}, {"measurement": "Weight of organs, Left kidney", "setting": "[1]; [12]", "result": "0.1750 ± 0.02", "unit": "c* g"}, {"measurement": "Weight of organs, Left testis", "setting": "[1]; [12]", "result": "0.1041 ± 0.01", "unit": "g"}, {"measurement": "Weight of organs, Liver", "setting": "[1]; [12]", "result": "1.048 ± 0.06", "unit": "a*b*c *** g"}, {"measurement": "Weight of organs, Lung", "setting": "[1]; [12]", "result": "0.1429 ± 0.02", "unit": "g"}, {"measurement": "Weight of organs, Pancreas", "setting": "[1]; [12]", "result": "0.3115 ± 0.03", "unit": "g"}, {"measurement": "Weight of organs, Right kidney", "setting": "[1]; [12]", "result": "0.1617 ± 0.01", "unit": "g"}, {"measurement": "Weight of organs, Right testis", "setting": "[1]; [12]", "result": "0.1052 ± 0.01", "unit": "c* g"}, {"measurement": "Weight of organs, Spleen", "setting": "[1]; [12]", "result": "0.0807 ± 0.01", "unit": "a* g"}, {"measurement": "Weight of organs, adipose tissue", "setting": "[1]; [12]", "result": "1.0369 ± 0.44", "unit": "b* g"}, {"measurement": "hypoglycemia", "setting": "[2]", "result": "did not induce any one of 6 KM mice fasted for 13 hour to produce hypoglycemia"}]}
{"compound": "Semaglutide", "values": [{"measurement": "half-life", "setting": "[3]", "result": "165 to 184", "unit": "h"}, {"measurement": "hypoglycemic activity reduction compared with Liraglutide", "setting": "[4]", "result": 3, "unit": "times"}, {"measurement": "injection-site discomfort and erythema", "setting": "[5]; % of patients", "result": 0.2, "unit": "%"}, {"measurement": "gastrointestinal adverse reactions", "setting": "[5]; Semaglutide 0.5 mg group", "result": 32.7, "unit": "%"}, {"measurement": "gastrointestinal adverse reactions", "setting": "[5]; Semaglutide 1 mg group", "result": 36.4, "unit": "%"}, {"measurement": "mean increase in amylase", "setting": "[5]; human, in vivo", "result": 13, "unit": "%"}, {"measurement": "mean increase in lipase", "setting": "[5]; human, in vivo", "result": 22, "unit": "%"}, {"measurement": "severe hypoglycemia", "setting": "[5]; in combination with sulfonylurea, % of patients", "result": "0.8-1.2%"}, {"measurement": "Cholelithiasis", "setting": "[5]; two values printed 'respectively', groups not named", "result": "1.5% and 0.4%"}, {"measurement": "thyroid C-cell tumor", "setting": "[6]", "result": "can cause thyroid C-cell tumor"}]}
{"compound": "2G2 series 7: disulfide-linked homodimer of monomer SEQ ID NO: 7 (HAEGTFTSDVCSYLEGQAAXEFIAWLVRGRG; disulfide-linked homodimer; Sequence is synthesized; (20)..(20) Xaa is Xaa is 26Lys[N-e-(N-a-Palmitoyl-g-glutamyl)]; (31)..(31) C-terminal)", "values": [{"measurement": "Hypoglycemic duration (days)", "setting": "[7]", "result": "5 (2G2 peptide) days"}, {"measurement": "hypoglycemic effect in single OGTT", "setting": "[8]", "result": "stronger than that of monomeric G2 or G3"}, {"measurement": "GLP-1R expression (Western blot)", "setting": "[9]", "result": "significantly increased GLP-1R"}]}
